Test results: patent US20060100290A1, “Treatment of allergic rhinitis and asthma” (priority 2003, published 2006)

Test system: allergic rhinitis and asthma
Assay: Treatment of human patients with allergic rhinitis and/or asthma with daily atomoxetine (case reports, Examples 1-4)
Type: in vivo, humans
Protocol: A person with a 24 year history of severe allergic rhinitis, immunotherapy failure, and a 10 year history of moderate persistent asthma was given a 100 mg daily dose of atomoxetine. […]
Here, as is known in the art, FEV1 percent is the ratio of FEV1 to the predicted FEV1, which is obtained from standardized tables based on age, weight, height, and sex; FEV1 is the volume of air that is forcefully exhaled from the lungs in one second.

[1] = Example 3: person, allergic rhinitis, 80 mg daily dose

## CNCC[C@@H](Oc1ccccc1C)c1ccccc1.Cl [atomoxetine, (R)-(−)-N-methyl-3-(2-methylphenoxy)-3-phenylpropylamine]
Example 1: person, 60 mg daily dose, monitored during the following year
  symptom status on atomoxetine mono therapy: remained symptom free during the entire period of monitoring
Example 1: person, allergic rhinitis and moderate persistent asthma, 60 mg daily dose
  time until able to wean all traditional allergic rhinitis and asthma treatments: three
Example 2: person, 100 mg daily dose, monitored during the following 10 months
  symptom status on atomoxetine mono therapy: remained symptom free during the entire period of monitoring
Example 2: person, severe allergic rhinitis and moderate persistent asthma, 100 mg daily dose
  time until able to wean all traditional allergic rhinitis and asthma treatments: ≤ 10 days
[1]
  time remained symptom free with atomoxetine mono therapy: at least nine
  time until able to wean all traditional allergic rhinitis treatments: ≤ 7 days
Example 4: person, 80 mg daily dose
  time remained symptom free with atomoxetine mono therapy: at least 7 months
Example 4: person, 80 mg daily dose, after 6 weeks of atomoxetine mono therapy, 68% on traditional treatments before
  FEV1 percent (ratio of FEV1 to predicted FEV1), pulmonary function test: 93%
Example 4: person, allergic rhinitis and moderate persistent asthma, 80 mg daily dose
  time until able to wean all traditional allergic rhinitis and asthma treatments: ≤ 10 days
